Blank lines part the entries; values can stand above or below the molecule they belong to. Where a SMILES comes first, the peptide text is derived from it. Bridges are numbered along the chain shown (N, C = ends). Roman numbers before positions name the chains, in order. Where no end group is shown, it is not given here. [ ]: non-standard residue; d: D form. Ahx = NCCCCCC(=O)O
What was measured:
BCL-2 [1] = target: BCL-2 (Homo sapiens, UniProt P10415); details: Letai et al., Cancer Cell 2:183-192 (2002); cited from earlier work
BCL-2, sequence (P10415 whole entry, species assumed): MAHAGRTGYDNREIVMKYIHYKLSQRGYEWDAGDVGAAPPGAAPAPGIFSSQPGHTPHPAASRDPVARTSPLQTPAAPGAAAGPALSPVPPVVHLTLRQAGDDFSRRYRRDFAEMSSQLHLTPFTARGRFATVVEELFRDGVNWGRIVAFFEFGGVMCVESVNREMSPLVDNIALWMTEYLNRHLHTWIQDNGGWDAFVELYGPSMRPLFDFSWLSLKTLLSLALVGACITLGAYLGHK

[2] = tested on: chronic lymphocytic leukemia (CLL) cells; experiment: viability/apoptosis of CLL cells electroporated with peptides (Annexin V-FITC/PI flow cytometry); assay type: cell-based, human; details: for cell viability (Induction of Apoptosis in CLL Cells), patient sample JCB 178: CLL patient sample JCB 178; for cell viability (Induction of Apoptosis in CLL Cells), patient sample JCB 178 / cell viability (Induction of Apoptosis in CLL Cells), patient sample MA G15 / cell viability (Induction of Apoptosis in CLL Cells), patient sample TJK 328 / cell viability (Induction of Apoptosis in CLL Cells), patient sample TJK 340 #1 / cell viability (Induction of Apoptosis in CLL Cells), patient sample TJK 340 #2 / cell viability (Induction of Apoptosis in CLL Cells), patient sample TJK 375 / cell viability (Induction of Apoptosis in CLL Cells), Av.: peptide electroporated; for cell viability (Induction of Apoptosis in CLL Cells), patient sample TJK 328: CLL patient sample TJK 328; for cell viability (Induction of Apoptosis in CLL Cells), patient sample TJK 340 #1: CLL patient sample TJK 340 #1; for cell viability (Induction of Apoptosis in CLL Cells), patient sample TJK 340 #2: CLL patient sample TJK 340 #2; for cell viability (Induction of Apoptosis in CLL Cells), patient sample TJK 375: CLL patient sample TJK 375; for cell viability (Induction of Apoptosis in CLL Cells), Av.: average of the five preceding patient sample columns; for cell viability of CLL cells / cell viability in all the patient CLL samples: electroporated peptide; for cell viability of CLL cells: FIG. 2; for cell viability in all the patient CLL samples: summary of Table 4
Source text: Peripheral blood mononuclear cells (PBMC) from patients with chronic lymphocytic leukemia (CLL) were obtained from the CLL Research Consortium (CRC) tissue bank. Briefly, heparinized peripheral blood was obtained from patients diagnosed with B-CLL according to standard criteria (Chenson et al., Blood 87:4990-4997 (1996)). Lymphocytes were isolated by Ficoll density-gradient centrifugation and verified by immunofluorescence flow cytometry to be composed of greater than 95% CD5/CD19/CD23 triple positive B cells. […] CLL cells were electroporated with a dimethyl sulfoxide (DMSO) control or peptides essentially as described in […] et al., J. Immunol. Methods 275:41-56 (2003), and […] et al., Cancer Res. 63:1242-1248 (2003). For evaluation of apoptosis, at least 5×10^5 cells were recovered by centrifugation and double-stained with Annexin V-FITC, an early marker of apoptosis, and propidium iodide (PI), a nucleic acid-binding vital dye, followed by flow-cytometric analysis using the FL-1 and FL-3 channels of a Becton Dickinson flow cytometer (FACSort; San Jose, Calif.).

[3] = Letai et al., Cancer Cell 2:183-192 (2002); cited from earlier work
CLL cells = experiment: CLL cell viability, cell permeable peptides added directly to culture without electroporation; assay type: cell-based, human; details: for change in viability: TJK197 patient CLL cells, FIG. 4
Source text: Peripheral blood mononuclear cells (PBMC) from patients with chronic lymphocytic leukemia (CLL) were obtained from the CLL Research Consortium (CRC) tissue bank. Briefly, heparinized peripheral blood was obtained from patients diagnosed with B-CLL according to standard criteria (Chenson et al., Blood 87:4990-4997 (1996)). Lymphocytes were isolated by Ficoll density-gradient centrifugation and verified by immunofluorescence flow cytometry to be composed of greater than 95% CD5/CD19/CD23 triple positive B cells. CLL samples were incubated at 1×10^6 cells/ml in RPMI media supplemented with 10% FBS (fetal bovine serum) and 1 mM L-glutamine and antibiotics (penicillin/streptomycin) at 37° C. with 5% CO2 for 24 hours. CLL cells were electroporated with a dimethyl sulfoxide (DMSO) control or peptides essentially as described in Eksioglu-Demiralp et al., J. Immunol. Methods 275:41-56 (2003), and Schimmer et al., Cancer Res. 63:1242-1248 (2003).
For evaluation of apoptosis, at least 5×10^5 cells were recovered by centrifugation and double-stained with Annexin V-FITC, an early marker of apoptosis, and propidium iodide (PI), a nucleic acid-binding vital dye, followed by flow-cytometric analysis using the FL-1 and FL-3 channels of a Becton Dickinson flow cytometer (FACSort; San Jose, Calif.).
The wild type and modified BAD peptides fused to poly-arginine cell penetration sequences shown in Table 5 were synthesized by standard solid phase synthesis. CLL cell viability assays were performed as described above except that cell permeable peptides SEQ ID NOS: 28, 6 and 29 and the control, non-permeable peptide SEQ ID NO: 3 (see Table 5) were added directed to CLL cells in culture without electroporation.

Bcl-2 [4] = experiment: BD Cytometric Bead Assay of Bcl-2 levels in peptide treated CLL cells; assay type: cell-based, human; details: TJK160 and TJK357 CLL patient cells, incubated with peptide for four hours, FIG. 5
Procedure: TJK160 and TJK357 CLL patient cells were treated with the modified BAD peptide SEQ ID NO: 6 or with control peptides SEQ ID NO: 29 and SEQ ID NO: 30 essentially as described above. To determine the levels of Bcl-2 in each of the peptide treated CLL samples, a BD™ Cytometric Bead Assay (BD CBA; BD Biosciences) was used to quantitatively measure active caspase-3, cleaved PARP and Bcl-2 levels in a single sample. In this assay, soluble analytes are measured using amplified fluorescence detection and flow cytometry, with each bead in a CBA providing a capture surface for a specific protein and being analogous to an individually coated well in an ELISA plate. A single bead population with a distinct fluorescence intensity is coated with a capture antibody specific for active caspase-3 protein, cleaved PARP protein or Bcl-2 protein and subsequently resolved in the FL3 channel of a BD FACSTM brand flow cytometer. The capture bead, PE-conjugated detection antibody, and cell lysate standard or test samples are incubated together to form sandwich complexes and analyzed using BD CBA Analysis Software. Cells were lysed in 1× CBA Cell Lysis Buffer supplemented with Protease Inhibitor Cocktail according to the manufacturer's protocol. Human active caspase-3, cleaved PARP and Bcl-2 lysate standards were reconstituted in deionized water at room temperature for 15 minutes. The standard was diluted by serial dilutions using assay diluent according to the manufacturer's protocol. Capture beads were vortexed before use, and 50 μl of capture beads were transferred to each assay tube. Standard dilutions and test samples were added to the appropriate sample tubes (50 μl/tube) and incubated at room temperature for one hour. […] After addition of 300 μl of Wash Buffer, samples were analyzed by the BD FACScan or BD FACSCalibur. Samples were analyzed by the use of BD CellQuest Software, and data were acquired by the use of the BD CBA Software. […]

697-neo cells = experiment: cell viability assay in 697-neo cells; assay type: cell-based; details: low Bcl-2, FIG. 6
Procedure: (§1) The peptides were tested in cell viability assays essentially as described above in Examples I and II. Experiments were carried out in 697-neo and 697-Bcl-2 cells. 697 cells are from a cell line of preB leukemic cells. 697-Bcl-2 cells have been engineered to express high levels of Bcl-2. AML-349 and AML-728 are myeloblasts (verified by FACS analysis via CD34-positivity) that were isolated from respective patients with acute myelogenous leukemia (AML).

[5] = tested on: acute myelogenous leukemia (AML) cells; experiment: cell viability/apoptosis in patient AML cells; assay type: cell-based, human
Procedure: as §1

Bcl-2 family Bcl-2/x1 = Bcl-2 family Bcl-2/x1 (Homo sapiens, UniProt P10415); experiment: binding of penetratin-linked peptides to Bcl-2 (method not described)
Bcl-2 family Bcl-2/x1, sequence (P10415 1-205): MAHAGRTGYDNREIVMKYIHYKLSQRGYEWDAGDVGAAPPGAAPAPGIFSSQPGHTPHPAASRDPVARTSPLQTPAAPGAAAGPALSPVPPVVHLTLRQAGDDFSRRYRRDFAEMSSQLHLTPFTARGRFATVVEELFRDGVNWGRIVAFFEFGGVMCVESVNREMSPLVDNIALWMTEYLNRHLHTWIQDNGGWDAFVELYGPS

Bcl-2 [6] = target: T1, Bcl-2 (UniProt P10415 1-239, limits assumed); experiment: inferred from cell viability of 697-neo against 697-Bcl2 cells
T1 construct: also called Bcl-2 protein
T1 sequence (P10415 whole entry): as the sequence (P10415 whole entry, species assumed) above

Molecule: CSCC[C@H](NC(=O)[C@H](CCCNC(=N)N)NC(=O)[C@H](CCCNC(=N)N)NC(=O)[C@H](CC(C)C)NC(=O)[C@H](CCC(=O)O)NC(=O)[C@H](CCCNC(=N)N)NC(=O)CNC(=O)[C@H](Cc1ccc(O)cc1)NC(=O)[C@H](CCCNC(=N)N)NC(=O)[C@H](CCC(N)=O)NC(=O)[C@H](C)NC(=O)[C@H](C)NC(=O)[C@H](Cc1c[nH]c2ccccc12)NC(=O)[C@H](CC(C)C)NC(=O)[C@@H](N)CC(N)=O)C(=O)N[C@@H](CO)C(=O)N[C@@H](CC(=O)O)C(=O)N[C@@H](CCC(=O)O)C(=O)N[C@@H](Cc1ccccc1)C(=O)N[C@H](C(=O)N[C@@H](CC(=O)O)C(=O)N[C@@H](CO)C(=O)N[C@@H](Cc1ccccc1)C(=O)N[C@@H](CCCCN)C(=O)N[C@@H](CCCCN)C(=O)O)C(C)C [SEQ ID NO: 1]
Kd (BCL-2 [1]): ~40 nM
cell viability (Induction of Apoptosis in CLL Cells), patient sample JCB 178 [2]: 45%
cell viability (Induction of Apoptosis in CLL Cells), patient sample MA G15 [2]: 4%
cell viability (Induction of Apoptosis in CLL Cells), patient sample TJK 328 [2]: 42%
cell viability (Induction of Apoptosis in CLL Cells), patient sample TJK 340 #1 [2]: 46%
cell viability (Induction of Apoptosis in CLL Cells), patient sample TJK 340 #2 [2]: 56%
cell viability (Induction of Apoptosis in CLL Cells), patient sample TJK 375 [2]: 47%
cell viability (Induction of Apoptosis in CLL Cells), Av. [2]: 47%
cell viability of CLL cells [2]: minimal or insignificant changes in viability
cell viability in all the patient CLL samples [2]: minimally effected
apoptotic activity [3]: does not have apoptotic activity

Molecule: CSCC[C@H](NC(=O)[C@H](CCCNC(=N)N)NC(=O)[C@H](CCCNC(=N)N)NC(=O)[C@H](CC(C)C)NC(=O)[C@H](CCC(=O)O)NC(=O)[C@H](CCCNC(=N)N)NC(=O)CNC(=O)[C@H](Cc1ccc(O)cc1)NC(=O)[C@H](CCCNC(=N)N)NC(=O)[C@H](CCC(N)=O)NC(=O)[C@H](C)NC(=O)[C@H](C)NC(=O)[C@H](Cc1c[nH]c2ccccc12)NC(=O)[C@H](CC(C)C)NC(=O)[C@@H](N)CC(N)=O)C(=O)N[C@@H](C)C(=O)N[C@@H](CC(=O)O)C(=O)N[C@@H](CCC(=O)O)C(=O)N[C@@H](Cc1ccccc1)C(=O)N[C@H](C(=O)N[C@@H](CC(=O)O)C(=O)N[C@@H](C)C(=O)N[C@@H](Cc1ccccc1)C(=O)N[C@@H](CCCCN)C(=O)N[C@@H](CCCCN)C(=O)N[C@@H](CS)C(=O)NCCCCCC(=O)N[C@H](CCCNC(=N)N)C(=O)N[C@H](CCCNC(=N)N)C(=O)N[C@H](CCCNC(=N)N)C(=O)N[C@H](CCCNC(=N)N)C(=O)N[C@H](CCCNC(=N)N)C(=O)N[C@H](CCCNC(=N)N)C(=O)N[C@H](CCCNC(=N)N)C(=O)N[C@H](CCCNC(=N)N)C(=O)O)C(C)C [SEQ ID NO: 6] (H-NLWAAQRYGRELRRMADEFVDAFKKC[Ahx][dR][dR][dR][dR][dR][dR][dR][dR]-OH; N-terminus and C-terminus assumed)
cell viability, dose response (CLL cells; patient TJK379 CLL cells, FIG. 3): dose-dependent decrease in cell viability
percentage cell viability (CLL cells; patient TJK379 CLL cells, as little as 15 μM peptide): dramatically reduced
intracellular levels of Bcl-2 (Bcl-2 [4]): significant reduction in intracellular levels of Bcl-2

Molecule: AVPIAQK-Ahx-(DArg)8 (AVPIAQK[Ahx][dR][dR][dR][dR][dR][dR][dR][dR]) [SEQ ID NO: 30, control peptide with poly(DArg)]
intracellular levels of Bcl-2 (Bcl-2 [4]): not observed

Molecule: NLWAAQRYGREARRMAAEFVDAFKK [SEQ ID NO: 4]
cell viability (Induction of Apoptosis in CLL Cells), patient sample JCB 178 [2]: 38%
cell viability (Induction of Apoptosis in CLL Cells), patient sample MA G15 [2]: 20%
cell viability (Induction of Apoptosis in CLL Cells), patient sample TJK 328 [2]: 26%
cell viability (Induction of Apoptosis in CLL Cells), patient sample TJK 340 #1 [2]: 46%
cell viability (Induction of Apoptosis in CLL Cells), patient sample TJK 340 #2 [2]: 45%
cell viability (Induction of Apoptosis in CLL Cells), patient sample TJK 375 [2]: 48%
cell viability (Induction of Apoptosis in CLL Cells), Av. [2]: 41%
cell viability of CLL cells [2]: minimal or insignificant changes in viability
cell viability in all the patient CLL samples [2]: minimally effected

Molecule: NLWAAQRYGREARRMAAEFVDAFKKC-Ahx-(DArg)8 (NLWAAQRYGREARRMAAEFVDAFKKC[Ahx][dR][dR][dR][dR][dR][dR][dR][dR]) [SEQ ID NO: 29, control BAD peptide with poly(DArg)]
change in viability (CLL cells): no change in viability
intracellular levels of Bcl-2 (Bcl-2 [4]): not observed

Molecule: NLWAAQRYGRELRRMSDEFVDSFKKC-Ahx*-(DArg)8 (NLWAAQRYGRELRRMSDEFVDSFKKC[Ahx][dR][dR][dR][dR][dR][dR][dR][dR]) [SEQ ID NO: 28]
change in viability (CLL cells): no change in viability
effect on cell viability (CLL cells; patient TJK379 CLL cells, even at 50 μM): negligible effect
cell viability of cancer cells (concluding statement) (CLL cells; poly-arginine fused peptide, CLL cells): dramatically reduce cell viability

binding to Bcl-2 (Bcl-2 family Bcl-2/x1): does not bind Bcl-2 family Bcl-2/x1
Molecule: acetyl-NLWAAQRYGRELRRMADEFVDAFKKC-CRQIKIWFQNRRMKWKK-amide [2336] (D-residues; cyclised or stapled) [compound 2336]
activity in reducing cell viability (697-neo cells): significantly less active than the 2335 peptide
induction of apoptosis / killing ([5]; AML cells of patient AML-349, FIG. 9): showed less killing
induction of apoptosis ([5]; AML cells of patient AML-728, FIG. 8): does not

B1: 2335 peptide, acetyl-NLWAAQRYGRELRRMADEFVDAFKKC-CRQIKIWFQNRRMKWKK-amide (SEQ ID NO: 31) (peptide)
peptide 1: Ac-NLWAAQRYGRELRRMADEFVDAFKKC
peptide 2: CRQIKIWFQNRRMKWKK-NH2
modifications: disulfide I:26-II:1
notes: C-C is a disulfide between two peptides, so it is written here as two chains; also called Bad S/A peptide disulfide linked to penetratin; BAD-BH3 peptide
binding result (Bcl-2 [6]): binds
